Source: patent publication US7759366B2 (Sanofi-Aventis, priority 2006, dated 2010)
pKi: −log10 of the molar value.

target: hCB1R (Homo sapiens, UniProt P21554); test: Binding to the CB1 receptor ([3H]-SR141716A displacement); settings: not given
Protocol: Binding to the CB1 Receptor:
Test compounds: The compounds (3 μl, 10 mM, 100% DMSO), pipetted into 96-well PP microtiter plates, were diluted with 27 μl of 100% DMSO (dimethyl sulfoxide). Proceeding from this solution, further 3-fold dilution steps were undertaken by transferring 10 μl in each case to a new PP microtiter plate and adding a further 20 μl of 100% DMSO. In each case 6 μl of these solutions were transferred into new 96-well PP microtiter plates and made up with 144 μl of assay buffer. The end concentrations ranged from 10 μM to 0.005 μM. Negative control: AM 251, dissolved in assay buffer with 1% DMSO, was added to the dilution series in the microtiter plates as a control. The end concentration was 1 μM. Blank control: assay buffer with 1% DMSO was added to the dilution series of the microtiter plates as a blank control.
Summary of the Assay Parameters:
High control: ^3H binding without addition of the compound
Low control: ^3H binding in the presence of 1 μM AM 251
The values were calculated using the corrected raw data.
The values reported were obtained as average values of a double determination. The IC50 values were calculated from the measurements with the program Xlfit, formula 205. Ki values were obtained from the IC50 and Kd values utilizing the Cheng-Prusoff equation: […]
Literature: Cheng, Y.-C., and Prusoff, W. H. (1973) Biochem. Pharmacol 22, 3099-3108

Chain of hCB1R (P21554 whole entry): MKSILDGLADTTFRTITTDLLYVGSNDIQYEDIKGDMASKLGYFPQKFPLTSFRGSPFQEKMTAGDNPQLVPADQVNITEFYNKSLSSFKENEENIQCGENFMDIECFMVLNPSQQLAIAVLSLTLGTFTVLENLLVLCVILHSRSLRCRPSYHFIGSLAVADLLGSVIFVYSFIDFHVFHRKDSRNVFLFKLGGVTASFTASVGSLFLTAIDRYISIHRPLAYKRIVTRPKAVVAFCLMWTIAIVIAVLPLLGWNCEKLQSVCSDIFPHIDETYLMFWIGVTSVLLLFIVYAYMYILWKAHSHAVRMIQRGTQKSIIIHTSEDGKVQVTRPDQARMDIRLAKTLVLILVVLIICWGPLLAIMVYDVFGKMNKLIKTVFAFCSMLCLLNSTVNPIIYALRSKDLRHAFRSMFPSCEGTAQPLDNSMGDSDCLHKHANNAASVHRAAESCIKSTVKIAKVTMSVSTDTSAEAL

| Compound | pKi |
| --- | --- |
| CC1(C)C(=O)N(c2ccc(C#N)c(C(F)(F)F)c2)C(=O)N1Cc1cc(C(F)(F)F)ccc1Nc1ccc(Cl)cc1 [Example 19, 4-{3-[2-(4-chlorophenylamino)-5-trifluoromethylbenzyl]-4,4-dimethyl-2,5-dioxoimidazolidin-1-yl}-2-trifluoromethylbenzonitrile] | 8.30 |
| CC1(C)C(=O)N(c2ccc(F)c(C(F)(F)F)c2)C(=O)N1Cc1ccccc1Nc1ccccc1 [Example 23, 3-(4-Fluoro-3-trifluoromethylphenyl)-5,5-dimethyl-1-(2-phenylaminobenzyl)imidazolidin-2,4-dione] | 8.00 |
| CC1(C)C(=O)N(c2ccc(C#N)c(C(F)(F)F)c2)C(=O)N1Cc1ccccc1Nc1ccc(S(F)(F)(F)(F)F)cc1 [Example 26, 4-{3-[2-(4-pentafluorosulfanylphenylamino)benzyl]-4,4-dimethyl-2,5-dioxoimidazolidin-1-yl}-2-trifluoromethylbenzonitrile] | 7.41 |
| CC1(C)C(=O)N(c2ccc(C#N)c(C(F)(F)F)c2)C(=O)N1Cc1ccccc1Nc1ccc(S(C)(=O)=O)cc1 [Example 27, 4-{3-[2-(4-methylsulfonylphenylamino)benzyl]-4,4-dimethyl-2,5-dioxoimidazolidin-1-yl}-2-trifluoromethylbenzonitrile] | 7.77 |
| N#Cc1ccc(N2C(=O)N(Cc3ccccc3Nc3ccccc3)C3(CCCCC3)C2=O)cc1C(F)(F)F [Example 28, 4-[2,4-Dioxo-1-(2-phenylaminobenzyl)-1,3-diazaspiro[4.5]dec-3-yl]-2-trifluoromethylbenzonitrile] | 7.06 |
| CC1(C)C(=O)N(c2ccc(C#N)c(C(F)(F)F)c2)C(=O)N1Cc1ccccc1Nc1ccc2c(c1)OC(F)(F)O2 [Example 32, 4-{3-[2-(2,2-difluorobenzo[1,3]dioxol-5-ylamino)benzyl]-4,4-dimethyl-2,5-dioxoimidazolidin-1-yl}-2-trifluoromethylbenzonitrile] | 8.52 |
| CC1(C)C(=O)N(c2ccc(C#N)c(C(F)(F)F)c2)C(=O)N1Cc1ccccc1Nc1cccc(C(F)(F)F)c1 [Example 34, 4-{3-[2-(3-trifluoromethylphenylamino)benzyl]-4,4-dimethyl-2,5-dioxoimidazolidin-1-yl}-2-trifluoromethylbenzonitrile] | 7.85 |
| CC1(C)C(=O)N(c2ccc(C#N)c(S(F)(F)(F)(F)F)c2)C(=O)N1Cc1ccccc1Nc1ccc(F)cc1F [Example 51, 4-{3-[2-(2,4-Difluorophenylamino)benzyl]-4,4-dimethyl-2,5-dioxoimidazolidin-1-yl}-2-pentafluorosulfanylbenzonitrile] | 8.70 |
| CC1(C)C(=O)N(c2ccc(F)c(C(F)(F)F)c2)C(=O)N1Cc1ccccc1Nc1ccc(F)cc1F [Example 52, 1-[2-(2,4-difluorophenylamino)benzyl]-3-(4-fluoro-3-trifluoromethylphenyl)-5,5-dimethylimidazolidine-2,4-dione] | 8.52 |
| CC1(C)C(=O)N(c2ccc(C#N)c(C(F)(F)F)c2)C(=O)N1Cc1ccccc1Nc1ccc(F)cc1C#N [Example 53, 4-{3-[2-(2-cyano-4-fluorophenylamino)benzyl]-4,4-dimethyl-2,5-dioxoimidazolidin-1-yl}-2-trifluoromethylbenzonitrile] | 8.70 |
| CC1(C)C(=O)N(c2ccc(C#N)c(C(F)(F)F)c2)C(=O)N1Cc1ccccc1Nc1ccncc1 [Example 61, 4-{4,4-Dimethyl-2,5-dioxo-3-[2-(pyridin-4-ylamino)benzyl]imidazolidin-1-yl}-2-trifluoromethylbenzonitrile] | 7.72 |
| CC1(C)C(=O)N(c2ccc(C#N)c(C(F)(F)F)c2)C(=O)N1Cc1ccccc1Nc1ccc(C(=O)O)cc1 [Example 62] | 7.80 |
| CC(C)(C)c1cc(N2C(=O)N(Cc3ccccc3Nc3ccccc3)C(C)(C)C2=O)ccc1C#N [Example 63, 2-tert-Butyl-4-[4,4-dimethyl-2,5-dioxo-3-(2-phenylaminobenzyl)imidazolidin-1-yl]benzonitrile] | 8.05 |
| COC(=O)c1ccc(Nc2cc(OC)ccc2CN2C(=O)N(c3ccc(C#N)c(C(F)(F)F)c3)C(=O)C2(C)C)cc1 [Example 110, Methyl 4-{2-[3-(4-cyano-3-trifluoromethylphenyl)-5,5-dimethyl-2,4-dioxoimidazolidin-1-ylmethyl]-5-methoxyphenylamino}benzoate] | 8.30 |
| COC(=O)c1ccc(Nc2cc(F)ccc2CN2C(=O)N(c3ccc(C#N)c(C(F)(F)F)c3)C(=O)C2(C)C)cc1 [Example 111, Methyl 4-{2-[3-(4-cyano-3-trifluoromethylphenyl)-5,5-dimethyl-2,4-dioxoimidazolidin-1-ylmethyl]-5-fluorophenylamino}benzoate] | 9.00 |
| CC1(C)C(=O)N(c2ccc(C#N)c(C(F)(F)F)c2)C(=O)N1Cc1ccccc1Nc1ccc([N+](=O)[O-])cc1 [Example 112, 4-{4,4-dimethyl-3-[2-(4-nitrophenylamino)benzyl]-2,5-dioxoimidazolidin-1-yl}-2-trifluoromethylbenzonitrile] | 9.00 |
| CC1(C)C(=O)N(c2ccc(C#N)c(C(F)(F)F)c2)C(=O)N1Cc1ccccc1Nc1ccc(C=O)cc1 [Example 120, 4-{3-[2-(4-formylphenylamino)benzyl]-4,4-dimethyl-2,5-dioxoimidazolidin-1-yl}-2-trifluoromethylbenzonitrile] | 8.30 |
| CC(C)(C)OC(=O)c1ccc(Nc2cc(C#N)ccc2CN2C(=O)N(c3ccc(C#N)c(C(F)(F)F)c3)C(=O)C2(C)C)cc1 [Example 126, tert-Butyl 4-{5-cyano-2-[3-(4-cyano-3-trifluoromethylphenyl)-5,5-dimethyl-2,4-dioxoimidazolidin-1-ylmethyl]phenylamino}benzoate] | 7.64 |

same assay, conditions: CHO-K1/cannabinoid CB1 protein 2 μg/well; [3H]-SR141716A 0.5 nM; Ki from IC50 by Cheng-Prusoff; average of double determination; read-out: hCB1R; binding Ki

| Compound | pKi |
| --- | --- |
| CC1(C)C(=O)N(c2ccc(F)c(C(F)(F)F)c2)C(=O)N1Cc1ccccc1Nc1ccc(F)cc1 [Example 24, 1-[2-(4-fluorophenylamino)benzyl]-3-(4-fluoro-3-trifluoromethylphenyl)-5,5-dimethylimidazolidine-2,4-dione] | 7.96 |
| CC1(C)C(=O)N(c2ccc(F)c(C(F)(F)F)c2)C(=O)N1Cc1ccccc1Nc1ccc(Cl)cc1 [Example 25, 1-[2-(4-chlorophenylamino)benzyl]-3-(4-fluoro-3-trifluoromethylphenyl)-5,5-dimethylimidazolidine-2,4-dione] | 8.22 |
| CC1(C)C(=O)N(c2ccc(C#N)c(C(F)(F)F)c2)C(=O)N1Cc1cccc(Nc2ccccc2)c1 [Example 29, 4-[4,4-Dimethyl-2,5-dioxo-3-(3-phenylaminobenzyl)imidazolidin-1-yl]-2-trifluoromethylbenzonitrile] | 6.97 |
| CC1(C)C(=O)N(c2ccc(Oc3ccc(Cl)cc3)c(C(F)(F)F)c2)C(=O)N1Cc1ccccc1Nc1ccc(F)cc1F [Example 50, 3-[4-(4-Chlorophenoxy)-3-trifluoromethylphenyl]-1-[2-(2,4-difluorophenylamino)benzyl]-5,5-dimethylimidazolidine-2,4-dione] | 7.96 |
| CC1(C)C(=O)N(c2ccc(C#N)nc2)C(=O)N1Cc1ccccc1Nc1ccccc1 [Example 69] | 6.95 |
| CC1(C)C(=O)N(c2ccc(C#N)nc2)C(=O)N1Cc1ccccc1Nc1ccc(F)cc1F [Example 70, 5-{3-[2-(2,4-difluorophenylamino)benzyl]-4,4-dimethyl-2,5-dioxoimidazolidin-1-yl}pyridine-2-carbonitrile] | 7.57 |
